From ChEMBL document CHEMBL3739342, “Varitatin A, a Highly Modified Fatty Acid Amide from Penicillium variabile Cultured with a DNA Methyltransferase Inhibitor” (J Nat Prod, 2015)
Calls of active or inactive are those of the source. The rule behind the calls is not given here.

Key:
[1] = Cytotoxicity against human HCT116 cells by SRB assay; format: functional, cell-based; conditions: HCT-116
Homo sapiens = organism: Homo sapiens; assay: Inhibition of PTK (unknown origin) at 1 uM by ELISA
[2] = biological target: Platelet-derived growth factor receptor beta (Homo sapiens) (UniProt P09619); assay: Inhibition of PDGFR-beta (unknown origin) at 1 uM by ELISA
Platelet-derived growth factor receptor beta (Homo sapiens), sequence (P09619 whole entry): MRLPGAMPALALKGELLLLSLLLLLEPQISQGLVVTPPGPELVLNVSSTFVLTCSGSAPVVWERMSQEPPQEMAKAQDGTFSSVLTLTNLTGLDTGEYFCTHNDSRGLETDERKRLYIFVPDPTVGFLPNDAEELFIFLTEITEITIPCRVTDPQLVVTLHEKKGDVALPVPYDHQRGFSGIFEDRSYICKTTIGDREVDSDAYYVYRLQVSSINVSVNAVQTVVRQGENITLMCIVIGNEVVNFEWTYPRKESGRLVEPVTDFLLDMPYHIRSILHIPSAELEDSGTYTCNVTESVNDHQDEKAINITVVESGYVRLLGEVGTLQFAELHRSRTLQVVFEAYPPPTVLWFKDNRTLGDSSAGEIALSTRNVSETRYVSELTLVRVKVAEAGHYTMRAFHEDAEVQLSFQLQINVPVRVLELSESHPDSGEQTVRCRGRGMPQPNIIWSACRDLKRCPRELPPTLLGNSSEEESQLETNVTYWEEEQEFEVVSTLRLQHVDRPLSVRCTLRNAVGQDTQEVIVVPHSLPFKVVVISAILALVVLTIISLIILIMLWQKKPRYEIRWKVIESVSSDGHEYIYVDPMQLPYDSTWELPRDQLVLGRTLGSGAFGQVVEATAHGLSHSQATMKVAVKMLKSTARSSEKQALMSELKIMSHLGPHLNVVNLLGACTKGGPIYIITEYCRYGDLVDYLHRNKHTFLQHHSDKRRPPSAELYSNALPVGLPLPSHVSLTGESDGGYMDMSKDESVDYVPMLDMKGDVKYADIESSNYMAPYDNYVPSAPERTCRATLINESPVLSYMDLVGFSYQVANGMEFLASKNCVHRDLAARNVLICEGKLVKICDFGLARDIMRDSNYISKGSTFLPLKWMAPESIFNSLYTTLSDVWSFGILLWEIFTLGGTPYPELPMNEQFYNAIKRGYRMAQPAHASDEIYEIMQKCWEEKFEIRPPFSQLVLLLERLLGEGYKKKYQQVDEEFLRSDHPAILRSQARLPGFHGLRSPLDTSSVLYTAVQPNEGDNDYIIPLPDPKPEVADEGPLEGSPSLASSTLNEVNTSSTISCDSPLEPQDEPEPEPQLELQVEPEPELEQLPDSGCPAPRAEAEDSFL

[3] = biological target: Receptor tyrosine-protein kinase erbB-4 (Homo sapiens) (UniProt Q15303); assay: Inhibition of ErbB4 (unknown origin) at 1 uM by ELISA
Receptor tyrosine-protein kinase erbB-4 (Homo sapiens), sequence (Q15303 whole entry): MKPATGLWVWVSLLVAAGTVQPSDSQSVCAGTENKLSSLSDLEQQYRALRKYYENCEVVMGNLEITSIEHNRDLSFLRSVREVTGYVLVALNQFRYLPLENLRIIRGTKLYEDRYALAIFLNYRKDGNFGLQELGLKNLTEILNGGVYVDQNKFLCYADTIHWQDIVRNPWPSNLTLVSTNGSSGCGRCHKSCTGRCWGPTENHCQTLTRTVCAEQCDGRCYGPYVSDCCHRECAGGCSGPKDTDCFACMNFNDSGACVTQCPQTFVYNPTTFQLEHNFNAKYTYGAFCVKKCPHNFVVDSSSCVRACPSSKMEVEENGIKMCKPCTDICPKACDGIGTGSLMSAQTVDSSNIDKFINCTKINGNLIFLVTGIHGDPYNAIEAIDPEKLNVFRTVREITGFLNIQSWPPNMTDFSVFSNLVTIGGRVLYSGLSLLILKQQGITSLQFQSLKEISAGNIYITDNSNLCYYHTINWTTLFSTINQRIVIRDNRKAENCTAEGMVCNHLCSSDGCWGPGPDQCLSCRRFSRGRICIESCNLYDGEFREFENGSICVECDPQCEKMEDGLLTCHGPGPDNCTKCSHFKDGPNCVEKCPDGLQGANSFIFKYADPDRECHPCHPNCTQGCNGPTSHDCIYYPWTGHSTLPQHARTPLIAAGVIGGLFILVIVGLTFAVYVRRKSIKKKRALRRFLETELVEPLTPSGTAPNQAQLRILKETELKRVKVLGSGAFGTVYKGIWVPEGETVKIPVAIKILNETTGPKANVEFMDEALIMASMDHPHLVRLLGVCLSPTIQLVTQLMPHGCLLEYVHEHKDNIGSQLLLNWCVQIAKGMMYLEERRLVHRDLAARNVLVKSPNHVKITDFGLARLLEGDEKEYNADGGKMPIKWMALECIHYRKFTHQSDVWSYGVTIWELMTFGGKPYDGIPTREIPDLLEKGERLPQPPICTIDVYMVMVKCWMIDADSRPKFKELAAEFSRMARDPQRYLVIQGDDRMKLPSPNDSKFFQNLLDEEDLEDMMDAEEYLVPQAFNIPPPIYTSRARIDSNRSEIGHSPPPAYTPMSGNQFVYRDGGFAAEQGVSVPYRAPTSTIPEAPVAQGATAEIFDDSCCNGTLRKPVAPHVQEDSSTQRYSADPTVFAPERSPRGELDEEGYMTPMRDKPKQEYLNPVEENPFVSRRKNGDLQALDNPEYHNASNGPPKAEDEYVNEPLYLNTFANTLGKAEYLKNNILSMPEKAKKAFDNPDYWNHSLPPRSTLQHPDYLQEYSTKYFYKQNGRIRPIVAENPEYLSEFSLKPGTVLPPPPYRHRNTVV

| inhibition (Homo sapiens) | inhibition [2] [%] | inhibition [3] [%] | Compound | IC50 [1] [nM] |
| --- | --- | --- | --- | --- |
|  |  |  | COc1cccc2c1C(=O)c1c(O)c3c(c(O)c1C2=O)C[C@@](O)(C(=O)CO)C[C@@H]3O[C@H]1C[C@H](N)[C@H](O)[C@H](C)O1 [DOXORUBICIN] | 200 |
| Active | 50 | 40 | CC[C@@H](C)/C=C/CCCC/C=C/C=C/C=C/C(=O)N[C@@H]1CO[C@@]2(O)C=C[C@@H](Cl)[C@H](O)[C@@]2(O)C1 | 2800 |
